One series addresses serotonin 2 receptor (Rattus norvegicus, UniProt P14842). Put plainly: Binding test on [3H] ketanserin (serotonin 2 receptor). The settings on record: [3H] ketanserin 0.3 nM, receptor fraction of rat cerebral cortex; read-out: 5HT2.
A further series deals with T1, serotonin 1A receptor (Rattus norvegicus, UniProt P19327).
T1 construct: To the receptor fraction of the hippocampus were added a test compound and 0.5 nM of [^3H]; 8-hydroxy-dipropylaminotetralin; from tissue; host or cells: SD rat hippocampus, membrane (receptor) fraction
T1 sequence (P19327 1-422): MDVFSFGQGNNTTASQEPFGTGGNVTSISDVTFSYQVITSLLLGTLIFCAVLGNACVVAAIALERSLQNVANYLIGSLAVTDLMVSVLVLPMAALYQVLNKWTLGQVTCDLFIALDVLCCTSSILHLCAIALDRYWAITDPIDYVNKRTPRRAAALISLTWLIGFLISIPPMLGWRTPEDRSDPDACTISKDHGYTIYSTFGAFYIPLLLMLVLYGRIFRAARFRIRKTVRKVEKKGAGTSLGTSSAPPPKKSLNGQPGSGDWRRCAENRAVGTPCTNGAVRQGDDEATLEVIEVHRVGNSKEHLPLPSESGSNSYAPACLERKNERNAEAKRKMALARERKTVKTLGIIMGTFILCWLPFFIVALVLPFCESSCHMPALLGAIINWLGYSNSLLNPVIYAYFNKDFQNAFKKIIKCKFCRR
Put plainly: Binding test on [3H] 8-hydroxy-dipropylaminotetralin (serotonin 1A receptor). The settings on record: [3H] 8-OH-DPAT 0.5 nM, receptor fraction of rat hippocampus; read-out: 5HT1a.

For a further series, the target named is α1 adrenalin receptor. The series can be described thus: Binding test on [3H] prazosin (α1 adrenalin receptor). Further details: species or system rat. The following applies: [3H] prazosin about 0.2 nM, receptor fraction of rat cerebral cortex.

Structures are written as SMILES. A value given as a limit tells only on which side of the number the result lay.

Chain of serotonin 2 receptor (P14842 whole entry): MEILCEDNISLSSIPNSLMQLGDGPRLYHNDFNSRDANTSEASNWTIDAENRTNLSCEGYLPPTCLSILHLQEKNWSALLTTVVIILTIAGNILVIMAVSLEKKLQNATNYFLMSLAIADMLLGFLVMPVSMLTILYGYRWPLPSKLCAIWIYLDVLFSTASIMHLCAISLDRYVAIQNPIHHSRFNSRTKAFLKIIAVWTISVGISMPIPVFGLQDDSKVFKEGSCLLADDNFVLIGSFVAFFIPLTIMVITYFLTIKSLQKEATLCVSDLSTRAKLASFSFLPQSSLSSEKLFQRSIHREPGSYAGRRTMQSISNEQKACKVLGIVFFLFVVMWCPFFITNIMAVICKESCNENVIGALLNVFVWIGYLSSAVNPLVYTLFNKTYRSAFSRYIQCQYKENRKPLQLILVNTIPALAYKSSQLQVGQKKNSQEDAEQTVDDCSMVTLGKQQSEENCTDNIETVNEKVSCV

By melting point is commonly meant the temperature, or range, at which the solid turns liquid. Regarding `Fc1ccc(CCN2CCC(n3ccc4cc5scnc5cc43)CC2)cc1` [Example 334, 1-[1-(4-fluorophenethyl)piperidin-4-yl]thiazolo[5.4-f]indole], the melting point is 152 to 154 °C. The Ki on serotonin 2 receptor was above 20 nM. For the same molecule, at serotonin 1A receptor, the Ki was 0.04 nM. The molecule also displayed a Ki on α1 adrenalin receptor of 212 nM.

`CCCS(=O)(=O)NCc1ccc2ccn(C3CCN(CCc4ccc(F)cc4)CC3)c2c1` [Example 324, 1-[1-(4-fluorophenethyl)piperidin-4-yl]-6-n-propylsulfonamidomethylindole] came in with a melting point of 80 to 81 °C. Further, the Ki at serotonin 2 receptor was above 20 nM. Moreover, the Ki at serotonin 1A receptor turned out to be 0.1 nM. On α1 adrenalin receptor, this molecule showed a Ki of 60.9 nM.

Regarding `CCC(=O)NCc1ccc2ccn(C3CCN(CCc4ccccc4F)CC3)c2c1` [Example 380, 1-[1-(2-fluorophenethyl)piperidin-4-yl]-6-propionylaminomethylindole], the melting point lay in the range of 118 to 119 °C. For the same molecule, on serotonin 2 receptor, the Ki worked out at 1.56 nM. Also, the Ki at serotonin 1A receptor is 2.87 nM. The Ki on α1 adrenalin receptor turned out to be 116 nM.

The molecule `OCCCc1ccc2ccn(C3CCN(CCc4ccc(F)cc4)CC3)c2c1` [Example 321, 1-[1-(4-fluorophenethyl)piperidin-4-yl]-6-(3-hydroxypropyl)indole] yielded a melting point of 131 to 133 °C. The Ki at serotonin 2 receptor was above 20 nM. For the same molecule, the Ki at serotonin 1A receptor turned out to be 0.14 nM. The Ki at α1 adrenalin receptor was 203 nM.

`CS(=O)(=O)c1ccc2ccn(C3CCN(CCc4ccc(F)cc4)CC3)c2c1` [Example 331, 1-[1-(4-fluorophenethyl)piperidin-4-yl]-6-methanesulfonylindole]: the melting point lay within 133 to 135 °C. The Ki at serotonin 2 receptor amounted to 8.28 nM. The Ki on serotonin 1A receptor is 0.11 nM. The Ki on α1 adrenalin receptor was determined as 77 nM.

As for `O=C1CNC(=O)N1Cc1ccc2ccn(C3CCN(CCc4ccc(F)cc4)CC3)c2c1` [Example 353, 1-[1-(4-fluorophenethyl)piperidin-4-yl]-6-(2,4-imidazolidinedion-3-yl)methylindole], the melting point is 156 to 157 °C. Moreover, the Ki at serotonin 2 receptor was 12.6 nM. In addition, the Ki at serotonin 1A receptor worked out at 0.78 nM. At α1 adrenalin receptor, this molecule registered a Ki of 144 nM.

Take `O=C(Cc1ccc2ccn(C3CCN(CCc4ccc(F)cc4)CC3)c2c1)N1CCC(O)CC1` [Example 302, 1-[1-(4-fluorophenethyl)piperidin-4-yl]-6-(4-hydroxypiperidin-1-ylcarbonylmethyl)indole]: the melting point was 190.5 to 192.2 °C (dec.). In addition, at serotonin 2 receptor, the Ki was determined as 60.5 nM. For the same molecule, the Ki at serotonin 1A receptor was 2.92 nM. The same molecule yielded a Ki at α1 adrenalin receptor of 143 nM.

Take `COCCNC(=O)Cc1ccc2ccn(C3CCN(CCc4ccc(F)cc4)CC3)c2c1` [Example 309, 1-[1-(4-fluorophenethyl)piperidin-4-yl]-6-(2-methoxyethyl)carbamoylmethylindole]: the melting point fell in the range of 113.2 to 114.4 °C. Also, at serotonin 2 receptor, the Ki worked out at 1.02 nM. Also, the Ki on serotonin 1A receptor amounted to 3.85 nM. Besides, at α1 adrenalin receptor, the Ki was determined as 123 nM.

`CNS(=O)(=O)Cc1ccc2ccn(C3CCN(CCc4ccc(F)cc4)CC3)c2c1` [Example 338, 1-[1-(4-fluorophenethyl)piperidin-4-yl]-6-(N-methylsulfamoylmethyl)indole] yielded a melting point of 172 to 175 °C. For the same molecule, the Ki at serotonin 2 receptor is above 20 nM. Besides, at serotonin 1A receptor, the Ki came to 0.07 nM. At α1 adrenalin receptor, the Ki turned out to be 21.3 nM.

For `O=C(Cc1ccc2ccn(C3CCN(CCc4ccc(F)cc4)CC3)c2c1)NC1CC1` [Example 295, 1-[1-(4-fluorophenethyl)piperidin-4-yl]-6-[N-(cyclopropylcarbamoyl)methyl]indole], the melting point lay within 156.4 to 156.8 °C. The Ki at serotonin 2 receptor came out at 3.64 nM. For the same molecule, at serotonin 1A receptor, the Ki is 0.85 nM. At α1 adrenalin receptor, this molecule showed a Ki of 195 nM.

Regarding `CCNC(=O)Cc1ccc2ccn(C3CCN(CCc4ccc(F)cc4)CC3)c2c1` [Example 294, 1-[1-(4-fluorophenethyl)piperidin-4-yl]-6-(ethylcarbamoylmethyl)indole], the melting point lay in the range of 159.6 to 160.1 °C. At serotonin 2 receptor, the Ki was 2.86 nM. In addition, the Ki on serotonin 1A receptor amounted to 1.05 nM. Moreover, the Ki on α1 adrenalin receptor is 80.7 nM.

Turning to `CNC(=O)Cc1ccc2ccn(C3CCN(CCc4ccc(F)cc4)CC3)c2c1` [Example 316, 1-[1-(4-fluorophenethyl)piperidin-4-yl]-6-methylcarbamoylmethylindole], the melting point was in the range of 149.4 to 150.5 °C. Moreover, the Ki at serotonin 2 receptor amounted to 1.26 nM. At serotonin 1A receptor, the Ki worked out at 1.82 nM. At α1 adrenalin receptor, this molecule returned a Ki of 63.7 nM.

In the case of `OCc1ccc2ccn(C3CCN(CCc4ccccc4F)CC3)c2c1` [Example 391, 1-[1-(2-fluorophenethyl)piperidin-4-yl]-6-hydroxymethylindole], the melting point lay within 116.8 to 117.5 °C. The Ki on serotonin 2 receptor turned out to be 6.83 nM. The Ki on serotonin 1A receptor was 1.72 nM. On α1 adrenalin receptor, this molecule returned a Ki of 116 nM.

`CNC(=O)Cc1ccc2ccn(C3CCN(CCc4ccccc4F)CC3)c2c1` [Example 342, 1-[1-(2-fluorophenethyl)piperidin-4-yl]-6-methylcarbamoylmethylindole] came in with a melting point of 136.5 to 137.4 °C. The Ki at serotonin 2 receptor amounted to 38.1 nM. Besides, the Ki at serotonin 1A receptor came to 0.65 nM. In addition, the Ki at α1 adrenalin receptor turned out to be 25 nM.

`CC(=O)NCc1ccc2ccn(C3CCN(CCc4ccc(Cl)cc4)CC3)c2c1` [Example 349, 1-[1-(4-chlorophenethyl)piperidin-4-yl]-6-acetamidomethylindole] registered a melting point of 148 to 149 °C. Further, on serotonin 2 receptor, the Ki was 8.12 nM. Moreover, the Ki at serotonin 1A receptor worked out at 0.22 nM. In addition, on α1 adrenalin receptor, the Ki stood at 88.5 nM.

For `CN(C)C(=O)NCc1ccc2ccn(C3CCN(CCc4ccc(F)cc4)CC3)c2c1` [Example 385, 1-[1-(4-fluorophenethyl)piperidin-4-yl]-6-N,N-dimethylaminocarbonylaminomethylindole], the melting point lay within 115 to 116 °C. The Ki at serotonin 2 receptor is 0.97 nM. Moreover, the Ki at serotonin 1A receptor is 2.41 nM. The molecule further returned a Ki at α1 adrenalin receptor of 21.6 nM.

As for `CC(=O)NCc1ccc2c(Cl)cn(C3CCN(CCc4ccc(F)cc4)CC3)c2c1` [Example 328, 3-chloro-1-[1-(4-fluorophenethyl)piperidin-4-yl]-6-acetamidomethylindole], the melting point was 101 to 102 °C. Further, the Ki at serotonin 2 receptor was above 20 nM. Also, at serotonin 1A receptor, the Ki is 2.06 nM. Moreover, on α1 adrenalin receptor, the Ki came out at 140 nM.

For the molecule `CC(C)S(=O)(=O)NCc1ccc2ccn(C3CCN(CCc4ccc(F)cc4)CC3)c2c1` [Example 323, 1-[1-(4-fluorophenethyl)piperidin-4-yl]-6-isopropylsulfonamidomethylindole], the melting point lay in the range of 90 to 92 °C. Besides, at serotonin 2 receptor, the Ki was above 20 nM. Moreover, on serotonin 1A receptor, the Ki was 0.14 nM. At α1 adrenalin receptor, this molecule returned a Ki of 86.9 nM.

`OCCOc1ccc2ccn(C3CCN(CCc4ccc(F)cc4)CC3)c2c1` [Example 330, 1-[1-(4-fluorophenethyl)piperidin-4-yl]-6-hydroxyethoxyindole] registered a melting point of 118 to 119 °C. Further, the Ki on serotonin 2 receptor was above 20 nM. Moreover, the Ki at serotonin 1A receptor stood at 0.11 nM. The molecule also gave a Ki on α1 adrenalin receptor of 339 nM.

Consider `CN(C)CCNC(=O)Cc1ccc2ccn(C3CCN(CCc4ccc(F)cc4)CC3)c2c1` [Example 307, 1-[1-(4-fluorophenethyl)piperidin-4-yl]-6-(2-dimethylaminoethyl)carbamoylmethylindole], for which the melting point fell in the range of 111.8 to 112.9 °C. Besides, on serotonin 2 receptor, the Ki is 0.83 nM. For the same molecule, on serotonin 1A receptor, the Ki is 7.02 nM. For the same molecule, the Ki at α1 adrenalin receptor was determined as 51.5 nM.

For the origin of these results see patent publication US6579881B2 (Eisai Co., Ltd., priority 1997, dated 2003).
